Data taken from paper PMC6684685, “Evaluation of polydentate picolinic acid chelating ligands and an α-melanocyte-stimulating hormone derivative for targeted alpha therapy using ISOL-produced ^225Ac” (EJNMMI Radiopharmacy and Chemistry, 2019).
Like-named read-outs stand apart in the source and are kept apart here.

Assays:
[1] = Stability of 225Ac complexes in human serum (competition, TLC); assay type: in vitro ADME; details: ambient temperature
Method: (§1) Varying TLC/iTLC plate systems were selected for different ligands based from results of positive and negative radiolabeling controls: • Method A, for [^225Ac(octapa)]^− and [^225Ac(CHXoctapa)]^−: iTLC-SG plates (Agilent, 2 cm × 10 cm, baseline at 1.5 cm), developed using 10 mM NaOH/9% NaCl solution. Under these conditions free ^225Ac^III remains at the baseline (Rf = 0), while the ^225Ac-ligand complex migrates upwards with the solvent (Rf > 0); or • Method B, for [^225Ac(bispa^2)]^+ and [^225Ac(macropa)]^+: aluminum-backed ultrapure silica gel 60 with 250 μm thickness TLC plates (Fisher, 2 cm × 10 cm, baseline at 1.5 cm), developed using 0.4 M sodium citrate (pH 4) with 10% methanol. Under these conditions free ^225Ac^III migrates with the solvent front (Rf = 1), while ^225Ac-ligand complex remains at the baseline (Rf = 0); (Comba et al. [2017]; Thiele et al. [2017]) or • Method C, for [^225Ac(DOTA)]^−: iTLC-SA plates (Agilent, 2 × 10 cm, baseline at 1.5 cm) and developed using 50 mM EDTA buffer, pH 4. Under these conditions free ^225Ac^III migrates with the solvent front (Rf = 1), while ^225Ac-ligand complex remains at the baseline (Rf = 0); or • Method D, for human serum stability (below): aluminum-backed ultrapure silica gel 60 with 250 um thickness TLC plates (Fisher, 2 cm × 10 cm, baseline at 1.5 cm), developed in 50 mM EDTA, pH 5. Under these conditions, chelate-bound ^225Ac remains at the baseline (Rf = 0), and any ^225Ac^III that has de-complexed from the chelate will travel with the solvent front (Rf = 1). Method D was validated by incubating “free” ^225Ac^III with human serum under analogous conditions to ensure all the activity eluted with the solvent front (Rf ~ 1).
To investigate the stabilities of the ^225Ac-complexes, a competition experiment was performed in the presence of excess human serum and the displacement of radioactivity from the chelator to serum proteins was tracked over the course of seven days. Endogenous metal-binding proteins in serum such as apo-transferrin and metallothionein can compete for and displace chelator-bound metal ions in vivo, preventing successful delivery of the radionuclide to the desired target. The ^225Ac-complexes were prepared using the radiolabeling protocols described above and added to an equal volume (170–180 μL) of human serum (stored at − 5 °C and thawed at ambient temperature). At varying time points (0.5 h to 7 days), small aliquots (1–5 μL) were spotted on iTLC plates using Methods B or D, described above. Representative TLC radio-chromatograms of a serum competition assay with ligand and control are presented in Additional file 1: Figures S2 and S3.

[2] = La(III) exchange competition assay, 50-fold excess La; assay type: physicochemical; details: 50-fold excess La^III, ambient temperature
Method: as §1
The stability of a radiometal-chelate complex is also often assessed by its ability to withstand transchelation in the presence of excess stable isotopes of the radiometal. Though this is an impossible experiment to perform with Ac since all Ac isotopes are unstable, lanthanum(III) has a similar ionic radius ([…], CN = 6–9) and charge to actinium(III) and is often considered a chemical surrogate to Ac^III. Using non-radioactive metal ions such as La^III as a competitor for ligand complexation is a straightforward method to probe the kinetic off-rate of a pre-formed Ac^III complex, since many ligands that bind Ac^III may also efficiently complex La^III. Herein, ^225Ac-complexes were prepared using the radiolabeling protocols described above and combined with La(NO3)3 (0.1 M, 50 M equivalents compared to the ligand) and allowed to react at ambient temperature. At varying time points (1 h – 7 d), aliquots of the competition reaction mixture (1–5 μL) were spotted on aluminum backed TLC plates and developed using the TLC methods described above.

[3] = human serum, n = 1, ref Thiele et al. [2017], cited from earlier work
[4] = 50-fold excess La^III, ref Thiele et al. [2017], cited from earlier work

O=C([O-])CN1CCN(CC(=O)[O-])CCN(CC(=O)[O-])CCN(CC(=O)[O-])CC1.[225Ac+3] [[^225Ac(DOTA)]^−, reference compound]
% Stable ([1]; 0.5 h): 92.4 ± 4.0% | % Stable ([1]; 1 h): 93.9 ± 4.5% | % Stable ([1]; 4 h): 94.4 ± 3.7% | % Stable ([1]; 1 d): 90.9 ± 5.6% | % Stable ([1]; 2 d): 91.8 ± 5.6% | % Stable ([1]; 4 d): 91.1 ± 6.1% | % Stable ([1]; 7 d): 84.7 ± 8.1% | % Stable ([2]; 1 h): 95.2 ± 3.3% | % Stable ([2]; 5 h): 94.5 ± 3.5% | % Stable ([2]; 1 d): 94.9 ± 2.9% | % Stable ([2]; 2 d): 86.2 ± 3.1% | % Stable ([2]; 7 d): 77.1 ± 3.6%

O=C([O-])CN(Cc1cccc(C(=O)[O-])n1)C1CCCCC1N(CC(=O)[O-])Cc1cccc(C(=O)[O-])n1.[225Ac+3] (centres unmarked) [[^225Ac(CHXoctapa)]^−]
% Stable ([1]; 1 h): 95.9 ± 1.0% | % Stable ([1]; 4 h): 96.8 ± 1.7% | % Stable ([1]; 1 d): 97.0 ± 0.9% | % Stable ([1]; 2 d): 96.7 ± 1.6% | % Stable ([1]; 3 d): 96.1 ± 1.5% | % Stable ([1]; 4 d): 96.7 ± 1.2% | % Stable ([1]; 7 d): 95.6 ± 1.6% | % Stable ([2]; 5 h): 81.8 ± 4.3% | % Stable ([2]; 1 d): 45.7 ± 3.1% | % Stable ([2]; 2 d): 26.5 ± 8.9% | % Stable ([2]; 3 d): 18.1 ± 0.4% | % Stable ([2]; 6 d): 5.0 ± 0.4% | % Stable ([2]; 7 d): 3.9 ± 0.6%

O=C([O-])c1cccc(CN(CCN(Cc2cccc(C(=O)[O-])n2)CP(=O)([O-])[O-])CP(=O)([O-])[O-])n1.[225Ac+3] [[^225Ac(phospa)]^3−]
% Stable ([1]; 1 h): 81.6 ± 1.1% | % Stable ([1]; 1 d): 81.5 ± 0.2% | % Stable ([1]; 3 d): 80.2 ± 1.1% | % Stable ([1]; 4 d): 76.2 ± 0.1% | % Stable ([1]; 7 d): 77.1 ± 6.4% | % Stable ([2]; 5 h): 0%

O=C([O-])c1cccc(CN2CCOCCOCCN(Cc3cccc(C(=O)[O-])n3)CCOCCOCC2)n1.[225Ac+3] [[^225Ac(macropa)]^+]
% Stable ([3]; 0.5 h): 96% | % Stable ([3]; 1 h): 95% | % Stable ([3]; 4 h): 93% | % Stable ([3]; 1 d): 90% | % Stable ([3]; 2 d): 93% | % Stable ([3]; 3 d): 90% | % Stable ([3]; 7 d): 90% | % Stable ([4]; 1 h): 95% | % Stable ([4]; 1 d): 93% | % Stable ([4]; 2 d): 92% | % Stable ([4]; 3 d): 91% | % Stable ([4]; 6 d): 93% | % Stable ([4]; 7 d column (footnote: 8 d time point)): 91^b % | % Stable ([4]; 7 d column (footnote: 8 d time point), listed as [^225Ac(macropa)]^−): 91%

O=C([O-])CN(CCN(CC(=O)[O-])Cc1cccc(C(=O)[O-])n1)Cc1cccc(C(=O)[O-])n1.[225Ac+3] [[^225Ac(octapa)]^−]
% Stable ([1]; 1 h): 97.9 ± 0.9% | % Stable ([1]; 4 h): 96.9 ± 1.5% | % Stable ([1]; 1 d): 94.9 ± 1.2% | % Stable ([1]; 2 d): 96.1 ± 1.0% | % Stable ([1]; 3 d): 94.9 ± 1.1% | % Stable ([1]; 4 d): 95.9 ± 1.9% | % Stable ([1]; 7 d): 92.9 ± 1.0% | % Stable ([2]; 1 h): 78.9 ± 2.9% | % Stable ([2]; 5 h): 42.7 ± 0.3% | % Stable ([2]; 1 d): 4.7 ± 1.5% | % Stable ([2]; 2 d): 6.1 ± 2.6%
